This is an account of results in ChEMBL document CHEMBL1126417, “Indazole as an indole bioisostere: 5-HT4 receptor antagonism” (Bioorg Med Chem Lett, 1992).

The target in assay [1] is Serotonin 4 (5-HT4) receptor (Sus scrofa) (UniProt Q6Q253). As to the kind of experiment: Evaluated for the 5-hydroxytryptamine 4 receptor antagonistic activity in piglet atrium model. Type of assay: functional, tissue-based. The note with it: Cardiac atrium.
For assay [2], the target named is Serotonin 3 (5-HT3) receptor (Homo sapiens) (UniProt P46098+A5X5Y0+O95264+Q70Z44+Q8WXA8).
Description: Evaluated for the 5-hydroxytryptamine 3 receptor antagonistic activity in Bezold-Jarisch model expressed as inhibition of the reflex bradycardia induced by an intravenous injection

Each structure is given as a SMILES string.

Chain of Serotonin 4 (5-HT4) receptor (Sus scrofa) (Q6Q253 as listed by the source): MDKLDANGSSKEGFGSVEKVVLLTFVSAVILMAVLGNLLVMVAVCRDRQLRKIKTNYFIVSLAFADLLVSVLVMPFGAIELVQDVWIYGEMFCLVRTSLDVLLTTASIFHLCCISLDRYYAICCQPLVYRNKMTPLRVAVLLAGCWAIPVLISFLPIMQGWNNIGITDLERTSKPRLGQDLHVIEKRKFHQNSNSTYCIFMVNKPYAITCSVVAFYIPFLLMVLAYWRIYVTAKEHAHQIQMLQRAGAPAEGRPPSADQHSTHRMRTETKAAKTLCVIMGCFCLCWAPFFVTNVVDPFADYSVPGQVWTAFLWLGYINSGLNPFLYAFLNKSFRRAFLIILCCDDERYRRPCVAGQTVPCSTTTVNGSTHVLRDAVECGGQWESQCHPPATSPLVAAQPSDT

Compound `CN1[C@@H]2CC[C@H]1C[C@H](NC(=O)c1nn(C)c3ccccc13)C2` registered a -Log KB in assay [1] of 6.5. For `CN1C2CCCC1CC(NC(=O)c1[nH]nc3ccccc13)C2` (stereo not given), the -Log KB in assay [1] was 5. Moreover, in assay [2], the ID50 was found to be 1 µg/kg.

In assay [1], `CN1[C@@H]2CC[C@H]1C[C@@H](OC(=O)c1c[nH]c3ccccc13)C2` showed a -Log KB of 6.9. For the same compound, the ID50 in assay [2] amounted to 1.4 µg/kg. Regarding `CN1C2CCC1CC(NC(=O)c1n[nH]c3ccccc13)C2` (stereo not given), in assay [1], the -Log KB is 6.8. In assay [2], the ID50 was 1.5 µg/kg. As for `CN1C2CCC1CC(NC(=O)N1CC(C)(C)c3ccccc31)C2` (stereo not given), the -Log KB in assay [1] was 4.9. Consider `CN1C2CCC1CC(OC(=O)c1[nH]nc3ccccc13)C2` (stereo not given), for which the -Log KB in assay [1] was determined as 7.2. The compound also showed an ID50 in assay [2] of 5 µg/kg.
